Laboratory results as given in patent US12570639B2, “Tetrahydroquinoline derivative and medicinal use thereof” (Toray Industries, Inc., priority 2020, dated 2026).

Assays:
[1] = system: Human fibrosarcoma cells (HT-1080 cells); test: In vitro inhibitory action against ferroptosis (Erastin-induced cell death, Cell Counting Kit-8); type: cell-based; details: Erastin 3 μmol/L, 24 hours
[2] = In vitro radical scavenging action (DPPH method); details: 30 minutes at room temperature, maximum concentration 100 μmol/L
[3] = system: MOG-induced experimental autoimmune encephalomyelitis mouse model; test: Activity assessment 5 in MOG-induced experimental autoimmune encephalomyelitis mouse model; type: in vivo, C57BL/6J mice; details: 10 mg/kg orally twice daily for 15 days starting 52 days after MOG35-55 inoculation; vs vehicle-dosing group (2.13)
Experimental: (§1) A PBS solution prepared to contain a synthetic partial peptide of MOG (MOG35-55; CSBio) at a concentration of 4 mg/mL was mixed with an equal volume of Freund's complete adjuvant, and a total of 0.1 mL (0.05 mL per flank) of the resulting MOG35-55 dosing solution was inoculated intradermally into the bilateral flanks of C57BL/6J mice (male, 10 weeks old, Charles River Laboratories Japan, Inc.). On the day of inoculation of the MOG35-55 dosing solution and on the second day after the inoculation, 200 μL of pertussis toxin (Sigma Co. LLC) prepared at a concentration of 1 μg/mL was further administered intraperitoneally to the mice.
(§2) The compound of Example 11, the compound of Example 32, and the compound of Example 36 were used as test compounds to assess the effect of the test compounds on increase of neurological score in the MOG-induced experimental autoimmune encephalomyelitis mouse model. […] In addition, the score was determined by the following criteria: 0, normal; 0.5, partial drooping tail; 1, full drooping tail or hind-limb weakness; 2, full drooping tail and hind-limb weakness; 3, hind-limb partial paralysis; 4, hind-limb complete paralysis; 5, fore- and hind-limb complete paralysis. […]

[4] = system: MOG-induced experimental autoimmune encephalomyelitis mouse model; test: Activity assessment 6 in MOG-induced experimental autoimmune encephalomyelitis mouse model; type: in vivo, C57BL/6J mice; details: 10 mg/kg orally twice daily for 12 days starting 52 days after MOG35-55 inoculation; vs vehicle-dosing group (2.13)
Experimental: as §1, §2

[5] = evaluation concentration 10 μmol/L

| EC50 [2] [µM] | SMILES | Ferroptosis inhibition rate (%) ([1]; evaluation concentration 30 μmol/L) | neurological score reduction rate [3] [%] | Ferroptosis inhibition rate (%) [1, 5] [%] | neurological score reduction rate [4] [%] |
| --- | --- | --- | --- | --- | --- |
| > 100 | NS(=O)(=O)c1ccc(C2CCc3ccccc3N2)cc1 (stereo not drawn) [Example 33, 4-(1,2,3,4-tetrahydroquinolin-2-yl)benzenesulfonamide] | 84.88 | 38.2 | – | – |
| > 100 | NS(=O)(=O)c1ccc(C2CCc3cc(F)ccc3N2)cc1 (stereo not drawn) [Example 108, 4-(6-fluoro-1,2,3,4-tetrahydroquinolin-2-yl)benzenesulfonamide] | – | – | 83.78 | 29.4 |
| > 100 | NS(=O)(=O)c1ccc(C2CCc3cc(Cl)ccc3N2)cc1 (stereo not drawn) [Example 117, 4-(6-chloro-1,2,3,4-tetrahydroquinolin-2-yl)benzenesulfonamide] | – | – | 76.27 | 32.4 |
